According to the supplement of paper PMC4862054:

Key:
[1] = test system: CAL-148; details: 72 h
In short: (§1)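 Compound dissolved in 5 µl medium was placed in 384-well plates before 20 µl of breast cancer cell suspension was added, and the plates were incubated for 72 h. Cells then received 2.5 µl CellTiter-Blue for 2 h at 37 °C, and fluorescence was read at 560/590 nm. EC50 values come from percent-inhibition dose-response fits that were censored at the highest concentration, with plates normalised to vehicle and a positive kill control and rows with a zero drug sensitivity score excluded.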

[2] = test system: MDA-MB-453; details: 72 h
In short: as §1

[3] = test system: CAL-51; details: 72 h
In short: as §1

[4] = test system: HDQ-P1; details: 72 h
In short: as §1

[5] = test system: DU-4475; details: 72 h
In short: as §1

[6] = test system: CAL-85-1; details: 72 h
In short: as §1

[7] = test system: BT-474; test: normalised response (% of control), CellTiter-Glo; higher = more viable cells (100 = DMSO, 0 = benzethonium chloride kill control); details: incubation time: 72 h
In short: (§2)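 Each value is the plate-normalised signal at one concentration of the series. Breast cancer cell lines (20 µl suspension) were incubated 72 h in 384-well plates with compound at 5 concentrations in 10-fold steps over a compound-specific 10,000-fold range. CellTox Green and then CellTiter-Glo were read, and each plate was scaled to 0.1 % DMSO (100) and a positive kill control (0).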

[8] = test system: MDA-MB-436; test: as above; details: incubation time: 72 h
In short: as §2

[9] = test system: MDA-MB-468; test: as above; details: incubation time: 72 h
In short: as §2

[10] = test system: MDA-MB-231; test: as above; details: incubation time: 72 h
In short: as §2

[11] = test system: MDA-MB-453; test: as above; details: incubation time: 72 h
In short: as §2

[12] = test system: CAL-51; test: as above; details: incubation time: 72 h
In short: as §2

[13] = test system: BT-549; test: as above; details: incubation time: 72 h
In short: as §2

[14] = test system: HCC1143; test: as above; details: incubation time: 72 h
In short: as §2

[15] = test system: CAL-85-1; test: as above; details: incubation time: 72 h
In short: as §2

[16] = test system: HCC1599; test: as above; details: incubation time: 72 h
In short: as §2

Compound | EC50, CellTiter-Blue viability [1] [µM] | EC50, CellTiter-Blue viability [2] [µM] | EC50, CellTiter-Blue viability [3] [µM] | EC50, CellTiter-Blue viability [4] [µM] | EC50, CellTiter-Blue viability [5] [µM] | EC50, CellTiter-Blue viability [6] [µM] | normalised response [7] [%] | normalised response [8] [%] | normalised response [9] [%] | normalised response [10] [%] | normalised response [11] [%] | normalised response [12] [%] | normalised response [13] [%] | normalised response [14] [%] | normalised response [15] [%] | normalised response [16] [%]
Nc1ccccc1NC(=O)c1ccc(CNc2nccc(-c3cccnc3)n2)cc1 [Mocetinostat] | 1.79 | 0.588 | 3.05 | 9.49 | 0.757 | 1.53 | – | – | – | – | – | – | – | – | – | –
CCC/C=C/C=C/C(=O)O[C@H]1/C(=C/C(=O)OC)C[C@H]2C[C@H]([C@@H](C)O)OC(=O)C[C@H](O)C[C@@H]3C[C@H](OC(C)=O)C(C)(C)[C@](O)(C[C@@H]4C/C(=C/C(=O)OC)C[C@H](/C=C/C(C)(C)[C@]1(O)O2)O4)O3 [Bryostatin 1] | > 0.1 | – | – | – | – | > 0.1 | – | – | – | – | – | – | – | – | – | –
Cc1c(CN2CCN(C(=O)[C@H](C)O)CC2)sc2c(N3CCOCC3)nc(-c3cnc(N)nc3)nc12 [GDC-0980] | 0.306 | 0.0989 | 0.198 | 0.139 | 0.734 | 0.347 | – | – | – | – | – | – | – | – | – | –
CO[C@@H](C(=O)N1Cc2[nH]nc(NC(=O)c3ccc(N4CCN(C)CC4)cc3)c2C1)c1ccccc1 [Danusertib] | 0.0216 | 0.0409 | 0.348 | 0.427 | 0.538 | 0.435 | – | – | – | – | – | – | – | – | – | –
O=C(Nc1c[nH]nc1-c1nc2ccc(CN3CCOCC3)cc2[nH]1)NC1CC1 [AT9283] | 1.37 | 0.245 | 0.555 | 0.771 | 0.109 | 0.901 | – | – | – | – | – | – | – | – | – | –
Nc1ccccc1NC(=O)c1ccc(CNc2nccc(-c3cccnc3)n2)cc1 [Mocetinostat] (10000 nM) | – | – | – | – | – | – | 16.9 | 31.8 | 5.88 | 21.7 | 9.77 | 18.3 | 27.1 | 24.9 | 6.94 | 17.1
C[C@]12C=CC(=O)C=C1CC[C@@H]1[C@@H]2[C@@H](O)C[C@@]2(C)[C@H]1CC[C@]2(O)C(=O)CO [Prednisolone] | – | 0.171 | – | – | – | – | – | – | – | – | – | – | – | – | – | –
CC[C@@]1(O)C(=O)OCc2c1cc1n(c2=O)Cc2cc3c(CN(C)C)c(O)ccc3nc2-1 [Topotecan] | 0.0637 | 0.457 | 0.362 | > 1 | 0.118 | 0.613 | – | – | – | – | – | – | – | – | – | –
CS(=O)(=O)N1CCN(Cc2cc3nc(-c4cccc5[nH]ncc45)nc(N4CCOCC4)c3s2)CC1 [GDC-0941] | 0.96 | 0.212 | 0.569 | 0.156 | 5.65 | 1.07 | – | – | – | – | – | – | – | – | – | –
O=S(=O)(c1cccc2cnccc12)N1CCCNCC1 [Fasudil] | – | > 10 | – | – | – | – | – | – | – | – | – | – | – | – | – | –
C[C@]12O[C@H](C[C@]1(O)CO)n1c3ccccc3c3c4c(c5c6ccccc6n2c5c31)CNC4=O [Lestaurtinib] (1000 nM) | – | – | – | – | – | – | 56.8 | 44.7 | 35.6 | 54.5 | 79 | 91.1 | 30.3 | 71.9 | 32.5 | 24.3
COc1ccc(-c2cc3c(C)nc(N)nc3n([C@H]3CC[C@H](OCCO)CC3)c2=O)cn1 | 0.246 | 0.0728 | 0.14 | 0.0669 | 0.61 | 0.301 | – | – | – | – | – | – | – | – | – | –
COc1cc(CCc2cc(NC(=O)c3ccc(N4CC(C)NC(C)C4)cc3)n[nH]2)cc(OC)c1 (centres undefined) [AZD4547] | 0.632 | 0.31 | 0.548 | – | 0.536 | 0.529 | – | – | – | – | – | – | – | – | – | –
Cc1ccc(Nc2nccc(N(C)c3ccc4c(C)n(C)nc4c3)n2)cc1S(N)(=O)=O [Pazopanib] | – | 0.608 | – | > 10 | – | – | – | – | – | – | – | – | – | – | – | –
O=C(CCBr)N1CCN(C(=O)CCBr)CC1 [Pipobroman] | – | 6.14 | – | – | – | – | – | – | – | – | – | – | – | – | – | –
O=C(Nc1c[nH]nc1-c1nc2ccc(CN3CCOCC3)cc2[nH]1)NC1CC1 [AT9283] (1000 nM) | – | – | – | – | – | – | 58.6 | 99.5 | 31.1 | 42.4 | 185 | 83 | 27.8 | 60.8 | 59.6 | 74.4
COc1nc(N)nc2c1ncn2[C@@H]1O[C@H](CO)[C@@H](O)[C@@H]1O [Nelarabine] (10000 nM) | – | – | – | – | – | – | 87 | 90.1 | 87.1 | 94.3 | 81.3 | 143 | 95.8 | 94.9 | 103 | 117
O=C(CCBr)N1CCN(C(=O)CCBr)CC1 [Pipobroman] (10000 nM) | – | – | – | – | – | – | 94.7 | 95 | 100 | 101 | 110 | 86.5 | 101 | 103 | 98.2 | 99
